Reference: patent publication US20220370545A1, “INTEGRIN RECEPTOR ALPHA V BETA 3 AND ITS LIGAND INVOLVED IN CHRONIC ITCH” (North Carolina State University, priority 2019, published 2022)

Legend:
[1] = test system: periostin-induced itch behavior in mice; assay: Scratching behavior after intradermal periostin injection in the dorsal neck of mice; assay type: in vivo, mouse
Method: All behavioral experiments were conducted during the light cycle at ambient temperature (23° C.). Behavioral assessment of scratching behavior was conducted as described previously (Mishra et al., 2011). Briefly, mice were injected intradermal into the nape of the neck with periostin (R&D), histamine, and chloroquine (all Millipore-Sigma) as previously described (Shimada and LaMotte, 2008). Compounds were diluted in PBS and the same was used as a vehicle. […] Scratching behavior was recorded for 30 minutes and data was presented in bouts per 30 minutes for mice. One bout was defined as scratching behavior toward the injection site between lifting the hind leg from the ground and either putting it back on the ground or guarding the paw with the mouth. Injections of periostin, and capsaicin in the mouse cheek itch/pain model were performed as described previously (Shimada and LaMotte, 2008). For eye wipes assay, periostin and capsaicin were dropped on mouse cornea and counted wipes for 1-minute. Injection volume was always 20 μl in mice. For dog's study, periostin (25 μg/25 μl) was injected in the dorsal neck (s.c.) and behavior was recorded and quantified for 30 minutes as “duration of pruritus manifestation” (DPM), as described earlier (Paps et al., 2016). For non-human primate (NHP) studies, periostin (25 μg/100 μl) was injected in the NHP thigh (s.c.) on the lateral side of the upper part of the hind limb; the skin area over the vastus lateralis muscle. The lateral side of the upper part of the hind limb was chosen as an injection site because this location is safe and easy to access when the animal is in a chair. The number of scratches is easily countable in NHP. When different raters separately scored a single tape, the ratings indicated high interrater reliability (coefficient of correlation, r>0.95). This method of itch readout in NHP has been used and accepted (Ko and Naughton, 2000). The behavior was recorded for 30 minutes duration and number of scratches quantified. In NHP, a scratch is defined as one brief (<1 s) episode of scraping contact of the forepaw or hind paw on the skin surface

[2] = test system: Integrin αvβ3 on DRG Sensory Neurons; assay: Fura-2 calcium imaging of periostin-induced calcium response in cultured DRG sensory neurons; assay type: cell-based, mouse; details: periostin 16 ng/μl
Method: DRGs were isolated from mice and dissociated in 1 mL of media containing 2.5 U/mL of dispase (Fisher Scientific, Hampton, New Hampshire, United States of America) and 2.5 mg/mL of collagenase (Fisher Scientific, Hampton, New Hampshire, United States of America). After dissociation, the cells were washed with complete media (DMEM (HiMedia Laboratories, Mumbai, India) with 10% FBS (Atlanta Biologicals, Flowery Branch, Georgia, United States of America) and 1% PenStrep (VWR International, Radnor, Pa., United States of America)) and pelleted at 1000 rpm for 15 minutes. Approximately 30 μL of the cell suspension was plated on 18 mm round glass slides with a coating of laminin (Sigma Aldrich, St. Louis, Miss., United States of America) and poly-L-lysine (Sigma Aldrich, St. Louis, Miss., United States of America) and incubated for 1.5 hours. Afterwards, 1 mL of complete media was added, and the cells were incubated overnight. All incubation steps were done at 37° C. with 5% CO2.
Before imaging, cells were incubated in 350 μL of complete media containing 1 μM Fura-2 AM (Enzo Life Sciences, Farmingdale, New York, United States of America) for 30 min at 37° C. with 5% CO2. During imaging, the cells were perfused with a buffer containing the following: 135 mM sodium chloride, 3.2 mM potassium chloride, 2.5 mM magnesium chloride, 2.8 mM calcium chloride, 667 μM monobasic sodium phosphate, 14.2 mM sodium bicarbonate, and 10.9 mM D-glucose (all from VWR International, Radnor, Pennsylvania, United States of America) with a pH between 7.00 and 7.40. The buffer and the holding plate were kept at 37° C. while imaging. Imaging data was collected on a TE200 inverted microscope using NIS Elements software (Nikon, Melville, New York, United States of America). Cells were exposed to 340 nm and 380 nm wavelengths for 100 ms and the A340/A380 ratio was calculated. Traces were analyzed using Excel and responses greater than 10% of the baseline were counted. Each data point in the scatter plots represented one coverslip.
Calcium Imaging: Calcium imaging will be performed on the DRG neurons as previously described (Pitake et al., 2018). Briefly, DRG neurons will be incubated for longer than 30 min in DMEM containing 1 μM of a fluorescent indicator Fura-2 AM (Enzo Life Sciences, Inc., Farmingdale, N.Y., United States of America). The neurons will be perfused in a standard bath solution containing 140 mM NaCl, 5 mM KCl, 2 mM MgCl2, 2 mM CaCl2, 10 mM Hepes and 10 mM D-glucose at pH 7.4 adjusted with NaOH. A calcium-free bath solution will be prepared by omitting 2 mM CaCl2 from the standard bath solution […] adding 5 mM EGTA. Fura-2 fluorescence excited at 340 and 380 nm and emission will be monitored at 510 nm with a digital CCD camera (Andor Clara DR-4152, Andor Technology Ltd, Belfast, United Kingdom). Data will be obtained by every 100 ms using an imaging software (NIS-Elements AR 4.13.04, Nikon Corporation, Tokyo, Japan) and analyzed by Microsoft Excel (Microsoft Corporation, Redmond, Wash., United States of America). Values of calcium responses will be normalized by dividing measured values (F) with average values of initial 5 frames (F0) of each cell and described as F/F0. In this study, changes in each response to an application with F/F0>0.1 will be regarded as positive. Cells not responding to 100 mM KCl, which is applied at the end of each experiment, will be regarded as non-neuronal cells and excluded from analysis.
Periostin (10 ug/ml) will be used to evoke calcium influx. This response has been optimized. The peptide inhibitors will be tested on DRG neurons to measure calcium influx in response to periostin. Data on calcium imaging will be presented by presenting each mouse±SEM. The IC50 value of the inhibitor will also be determined
Additional inhibitors were studied using the calcium imaging method described in Example 3. Briefly, the Fura2-AM calcium imaging method was performed on live dorsal root ganglia (DRG) neurons (ex vivo). […]

Molecule | periostin-induced itch behavior ([1]; cilengitide 100 nM i.p. 10 minutes prior to periostin i.d. (5 μg/20 μl)) | periostin-induced itch behavior ([1]; cilengitide 100 nM i.v. 10 minutes prior to periostin i.d. (5 μg/20 μl)) | itch behavior after cilengitide alone ([1]; cilengitide injected alone, no periostin) | comparison of inhibitory effect among routes of injection ([1]; intravenous pre-injection versus i.p. and mix) | periostin-induced itch behavior ([1]; periostin and cilengitide mixed together and injected s.c.) | periostin-dependent calcium response ([2]; perfusion with 100 nM cilengitide) | scratching behavior after periostin injection ([1]; single i.d. injection 5 μg/20 μl in dorsal neck, within 15 minutes) | DRG sensory neurons with periostin-dependent changes in intracellular calcium [2]
CC(C)[C@H]1C(=O)N[C@@H](CCCN=C(N)N)C(=O)NCC(=O)N[C@@H](CC(=O)O)C(=O)N[C@H](Cc2ccccc2)C(=O)N1C [cilengitide, cyclo RGDf-n(Me)V] | significantly reduced | significantly reduced | did not induce itch behavior | strongest inhibitory effect | significantly reduced | significantly reduced | – | –
periostin: fasciclin extracellular matrix protein, endogenous ligand of integrin αvβ3; mouse recombinant used (protein) NSYYDKVLAHSRIRGRDQGPNVCALQQILGTKKKYFSSCKNWYQGAICGKKTTVLYECCPGYMRMEGMKGCPAVMPIDHVYGTLGIVGATTTQHYSDVSKLREEIEGKGSYTYFAPSNEAWENLDSDIRRGLENNVNVELLNALHSHMVNKRMLTKDLKHGMVIPSMYNNLGLFINHYPNGVVTVNCARVIHGNQIATNGVVHVIDRVLTQIGTSIQDFLEAEDDLSSFRAAAITSDLLESLGRDGHFTLFAPTNEAFEKLPRGVLERIMGDKVASEALMKYHILNTLQCSEAITGGAVFETMEGNTIEIGCEGDSISINGIKMVNKKDIVTKNGVIHLIDEVLIPDSAKQVIELAGKQQTTFTDLVAQLGLASSLKPDGEYTLLAPVNNAFSDDTLSMDQRLLKLILQNHILKVKVGLSDLYNGQILETIGGKQLRVFVYRTAICIENSCMVRGSKQGRNGAIHIFREIIQPAEKSLHDKLRQDKRFSIFLSLLEAADLKDLLTQPGDWTLFAPTNDAFKGMTSEERELLIGDKNALQNIILYHLTPGVYIGKGFEPGVTNILKTTQGSKIYLKGVNETLLVNELKSKESDIMTTNGVIHVVDKLLYPADIPVGNDQLLELLNKLIKYIQIKFVRGSTFKEIPMTVYRPAMTKIQIEGDPDFRLIKEGETVTEVIHGEPVIKKYTKIIDGVPVEITEKQTREERIITGPEIKYTRISTGGGETGETLQKFLQKEVSKVTKFIEGGDGHLFEDEEIKRLLQGDTPAKKIPANKRVQGPRRRSREGRSQ | – | – | – | – | – | – | robust scratching behavior | about 10±2%
